Laboratory results: patent publication US9796711B2, “Substituted pyrazolo[3,4-b]pyridin-6-carboxylic acids and method of use” (AbbVie S.àr.l., priority 2015, dated 2017)

Tests used:
[1] = biological target: T1, ΔF508-CFTR (Homo sapiens, UniProt P13569, DEL508-508); assay: CFTR cell surface levels using HRP-tagged ΔF508-CFTR expressing CFBE cells, in the presence of a co-corrector; assay type: cell-based; settings: HRP-tagged ΔF508-CFTR expressing CFBE cells, in the presence of 3 μM co-corrector; for EC50: read-out: EC50
T1 construct: host or cells: CFBE41o-, doxycycline-inducible
T1 sequence (P13569 with tags, fused parts or gaps DEL508-508): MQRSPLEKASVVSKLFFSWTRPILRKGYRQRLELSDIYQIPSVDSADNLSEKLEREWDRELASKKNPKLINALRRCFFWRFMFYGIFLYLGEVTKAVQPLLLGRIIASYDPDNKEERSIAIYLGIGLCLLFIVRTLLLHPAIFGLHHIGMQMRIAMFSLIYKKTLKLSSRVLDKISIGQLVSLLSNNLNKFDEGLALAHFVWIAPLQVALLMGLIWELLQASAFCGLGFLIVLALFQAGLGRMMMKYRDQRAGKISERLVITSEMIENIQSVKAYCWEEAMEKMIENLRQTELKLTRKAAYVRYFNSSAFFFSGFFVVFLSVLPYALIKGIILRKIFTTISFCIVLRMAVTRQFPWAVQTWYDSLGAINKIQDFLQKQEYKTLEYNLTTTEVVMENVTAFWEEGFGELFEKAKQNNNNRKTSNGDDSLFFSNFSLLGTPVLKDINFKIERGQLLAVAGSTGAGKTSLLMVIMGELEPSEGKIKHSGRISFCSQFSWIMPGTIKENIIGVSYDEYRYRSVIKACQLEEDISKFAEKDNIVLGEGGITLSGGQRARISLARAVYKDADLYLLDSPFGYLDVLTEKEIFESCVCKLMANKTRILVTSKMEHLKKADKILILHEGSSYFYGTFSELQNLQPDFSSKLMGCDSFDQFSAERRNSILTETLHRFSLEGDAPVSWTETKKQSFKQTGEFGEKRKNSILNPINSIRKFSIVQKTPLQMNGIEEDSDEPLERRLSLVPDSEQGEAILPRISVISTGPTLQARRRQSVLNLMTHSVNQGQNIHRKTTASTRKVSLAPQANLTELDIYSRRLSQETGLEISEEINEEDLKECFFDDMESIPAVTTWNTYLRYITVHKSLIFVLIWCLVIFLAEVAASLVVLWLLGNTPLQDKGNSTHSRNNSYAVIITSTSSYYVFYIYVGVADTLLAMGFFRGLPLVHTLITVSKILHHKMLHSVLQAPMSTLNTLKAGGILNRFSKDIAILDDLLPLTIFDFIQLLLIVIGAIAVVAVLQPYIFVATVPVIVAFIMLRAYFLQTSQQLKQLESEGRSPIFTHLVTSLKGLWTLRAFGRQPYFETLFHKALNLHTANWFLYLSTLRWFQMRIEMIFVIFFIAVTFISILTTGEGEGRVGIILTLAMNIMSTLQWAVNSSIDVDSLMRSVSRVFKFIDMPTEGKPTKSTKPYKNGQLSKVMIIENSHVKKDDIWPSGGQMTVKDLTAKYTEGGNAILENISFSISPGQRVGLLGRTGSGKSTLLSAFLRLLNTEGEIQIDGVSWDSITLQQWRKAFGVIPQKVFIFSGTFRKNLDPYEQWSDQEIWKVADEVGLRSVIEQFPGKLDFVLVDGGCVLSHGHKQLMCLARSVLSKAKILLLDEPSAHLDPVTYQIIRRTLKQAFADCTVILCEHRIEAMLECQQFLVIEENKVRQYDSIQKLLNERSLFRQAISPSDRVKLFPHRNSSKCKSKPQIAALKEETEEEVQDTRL
Summary of the method: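 Cells were seeded with 0.5 μg/mL doxycycline and held 68 h at 37 °C. Test compounds plus 3 μM co-corrector (final 0.1% DMSO) were then added for 20 h at 33 °C. Washed cells received HRP substrate, and luminescence was normalized between DMSO and 3 μM co-corrector controls.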

[2] = biological target: T1, ΔF508-CFTR; assay: CFTR cell surface levels using HRP-tagged ΔF508-CFTR expressing CFBE cells, intrinsic corrector capacity; assay type: cell-based; settings: for EC50: read-out: EC50
Summary of the method: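 Here the cells express ΔF508-CFTR with horseradish peroxidase inserted in extracellular loop 4, so only rescued channel at the surface gives luminescent signal. Compounds act on their own, 20 h at the reduced temperature of 33 °C; values are percent activity relative to DMSO and a 3 μM corrector.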

[3] = HRP-tagged ΔF508-CFTR CFBE41o- cells, compounds alone (intrinsic corrector capacity), 20 hours at 33° C., positive control 3 μM corrector
[4] = HRP-tagged ΔF508-CFTR CFBE41o- cells, compounds alone (intrinsic corrector capacity), 20 hours at 33° C.
[5] = HRP-tagged ΔF508-CFTR expressing CFBE cells, intrinsic corrector capacity (no co-corrector), 33° C., 20 hours
[6] = HRP-tagged ΔF508-CFTR CFBE cells, compound alone (intrinsic corrector capacity), 20 hours at 33° C.

Row | Compound | % Activation [1] [%] | EC50 [1] [µM] | % Activation [2, 3] [%] | EC50 [2, 4] [µM] | % Activation [2, 5] [%] | EC50 [2, 5] [µM] | % Activation [2, 6] [%] | EC50 [2, 6] [µM]
1 | Cc1cccc(-n2nc(C)c3c(-c4ccc(N5CCOCC5)cc4)cc(C(=O)O)nc32)c1 [compound 13, 3-methyl-1-(3-methylphenyl)-4-[4-(morpholin-4-yl)phenyl]-1H-pyrazolo[3,4-b]pyridine-6-carboxylic acid] | 363.7 | 0.723 | 159.23 | 0.997 | – | – | – | –
2 | CC(C)COC1CCN(c2cc(C(=O)O)nc3c2c(C(C)C)nn3-c2ccc(F)cc2)CC1 [compound 396, 1-(4-fluorophenyl)-4-[4-(2-methylpropoxy)piperidin-1-yl]-3-(propan-2-yl)-1H-pyrazolo[3,4-b]pyridine-6-carboxylic acid] | 409.8 | 0.301 | – | – | 209.3 | 0.403 | – | –
3 | COCCC1(COc2cc(C(=O)O)nc3c2c(C2CCC2)nn3-c2ccccc2)CC1 [compound 485, 3-cyclobutyl-4-{[1-(2-methoxyethyl)cyclopropyl]methoxyl}-1-phenyl-1H-pyrazolo[3,4-b]pyridine-6-carboxylic acid] | 242.05 | 0.335 | – | – | 107.5 | 1.07 | – | –
4 | Cc1nn(-c2ccccc2)c2nc(C(=O)O)cc(OCC3CCCCC3)c12 [compound 152, 4-(cyclohexylmethoxy)-3-methyl-1-phenyl-1H-pyrazolo[3,4-b]pyridine-6-carboxylic acid] | 253.1 | 2.09 | 75.36 | 2.63 | – | – | – | –
5 | CN1CCC([C@@H](F)COc2cc(C(=O)O)nc3c2c(C2CCC2)nn3-c2ccccc2)CC1 [compound 482, 3-cyclobutyl-4-[(2R)-2-fluoro-2-(1-methylpiperidin-4-yl)ethoxy]-1-phenyl-1H-pyrazolo[3,4-b]pyridine-6-carboxylic acid] | 284.7 | 0.709 | – | – | 144.75 | 1.64 | – | –
6 | CC(C)c1nn(-c2cccc(N3CCOCC3)c2)c2nc(C(=O)O)cc(-c3ccc(N4CCC(C#N)CC4)nc3)c12 [compound 178] | 591 | 0.458 | 415 | 0.628 | – | – | – | –
7 | CC(C)c1nn(-c2ccc(F)cc2)c2nc(C(=O)O)cc(N3CCN(CC4CCCO4)CC3)c12 (centres unmarked) [compound 792, 1-(4-fluorophenyl)-4-{4-[(oxolan-2-yl)methyl]piperazin-1-yl}-3-(propan-2-yl)-1H-pyrazolo[3,4-b]pyridine-6-carboxylic acid] | 321 | 0.71 | – | – | 170.1 | 1.43 | – | –
8 | COCC1CCCN(c2cc(C(=O)O)nc3c2c(C2CCC2)nn3-c2ccccc2)C1 (centres unmarked) [compound 373, 3-cyclobutyl-4-[3-(methoxymethyl)piperidin-1-yl]-1-phenyl-1H-pyrazolo[3,4-b]pyridine-6-carboxylic acid] | 306.9 | 0.304 | 126.3 | 0.469 | – | – | – | –
9 | O=C(O)c1cc(N2CCC(N3CCOCC3)CC2)c2c(C3CCC3)nn(-c3cc(F)ccc3F)c2n1 [compound 916, 3-cyclobutyl-1-(2,5-difluorophenyl)-4-[4-(morpholin-4-yl)piperidin-1-yl]-1H-pyrazolo[3,4-b]pyridine-6-carboxylic acid] | 362.05 | 1.38 | – | – | – | – | 165.25 | 1.67
10 | O=C(O)c1cc(OCCCF)c2c(C3CCC3)nn(-c3ccccc3)c2n1 [compound 489, 3-cyclobutyl-4-(3-fluoropropoxy)-1-phenyl-1H-pyrazolo[3,4-b]pyridine-6-carboxylic acid] | 274.95 | 0.77 | – | – | 106.4 | 1.86 | – | –
11 | O=C(O)c1cc(N2CCCCCC2)c2c(C3CCC3)nn(-c3ccccc3)c2n1 [compound 473, 4-(azepan-1-yl)-3-cyclobutyl-1-phenyl-1H-pyrazolo[3,4-b]pyridine-6-carboxylic acid] | 280.9 | 0.545 | – | – | 102.9 | 1.02 | – | –
